# Assay results reported in patent publication US7087642B2 (priority 1999, dated 2006).
# Where two headings read alike, the source gives them in different places.
# Columns and labels:
# IMPDH human type II = IMPDH human type II (Homo sapiens, UniProt P12268); test: biochemical; conditions: read-out: Ki
# human PBMC T cells = test: cells; type: cell-based; conditions: read-out: T-cells (IC50)
# human PBMC B cells = test: cells; type: cell-based; conditions: read-out: B-cells (IC50)
SMILES,Ki (IMPDH human type II),"IC50 (human PBMC T cells; Homo sapiens, 72 h)","IC50 (human PBMC B cells; Homo sapiens, 72 h)",IC50 (human PBMC T cells),IC50 (human PBMC B cells)
COc1cc(NC(=O)Nc2cccc(CNC(=O)OCCC#N)c2)ccc1-c1cnco1 [Compound 1],< 0.01 µM,0.1 to 1 µM,< 0.1 µM,,
COc1cc(NC(=O)Nc2cccc(CNC(=O)OCCOCCC#N)c2)ccc1-c1cnco1 [Compound 2],< 0.01 µM,0.1 to 1 µM,0.1 to 1 µM,,
COc1cc(NC(=O)Nc2cccc(CNC(=O)OCCN(C)CCC#N)c2)ccc1-c1cnco1 [Compound 3],< 0.01 µM,0.1 to 1 µM,0.1 to 1 µM,,
COc1cc(NC(=O)Nc2cccc(CNC(=O)OCC(OCc3ccco3)N(CCC#N)CC(C)C)c2)ccc1-c1cnco1 (centres unmarked) [Compound 4],< 0.01 µM,> 1 µM,> 1 µM,,
COc1cc(NC(=O)Nc2cccc(CNC(=O)OC[C@@H](N)CC#N)c2)ccc1-c1cnco1 [Compound 5],< 0.01 µM,> 1 µM,> 1 µM,,
COc1cc(NC(=O)Nc2cccc(CNC(=O)OC[C@H](CC#N)N(C)C)c2)ccc1-c1cnco1 [Compound 6],< 0.01 µM,0.1 to 1 µM,0.1 to 1 µM,,
COc1cc(NC(=O)Nc2cccc(CNC(=O)OCC(C)(C)CCC#N)c2)ccc1-c1cnco1 [Compound 7],< 0.01 µM,0.1 to 1 µM,0.1 to 1 µM,,
CCC(CCC#N)COC(=O)NCc1cccc(NC(=O)Nc2ccc(-c3cnco3)c(OC)c2)c1 (centres unmarked) [Compound 8],< 0.01 µM,0.1 to 1 µM,0.1 to 1 µM,,
COc1cc(NC(=O)Nc2cccc(CNC(=O)OC[C@H](N)CC#N)c2)ccc1-c1cnco1 [Compound 9],< 0.01 µM,0.1 to 1 µM,0.1 to 1 µM,,
COc1cc(NC(=O)Nc2cccc(CNC(=O)OC[C@H](CC#N)NC(=O)CC(C)(C)C)c2)ccc1-c1cnco1 [Compound 10],< 0.01 µM,0.1 to 1 µM,> 1 µM,,
COc1cc(NC(=O)Nc2cccc(CNC(=O)OC(COC(C)C)CN(CCC#N)CC(C)C)c2)ccc1-c1cnco1 (centres unmarked) [Compound 11],< 0.01 µM,> 1 µM,0.1 to 1 µM,,
COc1cc(NC(=O)Nc2cccc(CNC(=O)OC[C@@H](CC#N)NC(=O)OC(C)(C)C)c2)ccc1-c1cnco1 [Compound 12],< 0.01 µM,0.1 to 1 µM,0.1 to 1 µM,,
COc1cc(NC(=O)Nc2cccc(CNC(=O)OC(CC#N)CC#N)c2)ccc1-c1cnco1 [Compound 13],< 0.01 µM,0.1 to 1 µM,0.1 to 1 µM,,
COc1cc(NC(=O)Nc2cccc(CNC(=O)OCCN(CCC#N)CCC#N)c2)ccc1-c1cnco1 [Compound 14],< 0.01 µM,> 1 µM,0.1 to 1 µM,,
COc1cc(NC(=O)Nc2cccc(CNC(=O)OC[C@@H](CC#N)N(C)C)c2)ccc1-c1cnco1 [Compound 15],< 0.01 µM,0.1 to 1 µM,0.1 to 1 µM,,
CCN(CC)C[C@@H](CC#N)OC(=O)NCc1cccc(NC(=O)Nc2ccc(-c3cnco3)c(OC)c2)c1 [Compound 16],< 0.01 µM,,,> 1 µM,> 1 µM
COc1cc(NC(=O)Nc2cccc(CNC(=O)O[C@H](CC#N)CN3CCOCC3)c2)ccc1-c1cnco1 [Compound 18],< 0.01 µM,,,> 1 µM,> 1 µM
CCN(CC)C[C@H](CC#N)OC(=O)NCc1cccc(NC(=O)Nc2ccc(-c3cnco3)c(OC)c2)c1 [Compound 19],< 0.01 µM,,,0.1 to 1 µM,0.1 to 1 µM
COc1cc(NC(=O)Nc2cccc(CNC(=O)O[C@@H](CC#N)CN3CCOCC3)c2)ccc1-c1cnco1 [Compound 20],< 0.01 µM,,,0.1 to 1 µM,0.1 to 1 µM
COc1cc(NC(=O)Nc2cccc(CNC(=O)O[C@@H](CC#N)CN(C)C)c2)ccc1-c1cnco1 [Compound 22],< 0.01 µM,0.1 to 1 µM,0.1 to 1 µM,,
COc1cc(NC(=O)Nc2cccc(CNC(=O)O[C@H](CCl)CC#N)c2)ccc1-c1cnco1 [Compound 23],< 0.01 µM,< 0.1 µM,< 0.1 µM,,
COc1cc(NC(=O)Nc2cccc(CNC(=O)OCCCl)c2)ccc1-c1cnco1 [Compound 24],< 0.01 µM,> 1 µM,> 1 µM,,
COc1cc(NC(=O)Nc2cccc(CNC(=O)OC(CCl)CC#N)c2)ccc1-c1cnco1 (centres unmarked) [Compound 25],,0.1 to 1 µM,0.1 to 1 µM,,
COc1cc(NC(=O)Nc2cccc(CNC(=O)OC(C)CC#N)c2)ccc1-c1cnco1 (centres unmarked) [Compound 26],< 0.01 µM,< 0.1 µM,< 0.1 µM,,

SMILES,Ki (IMPDH human type II),"IC50 (human PBMC T cells; Homo sapiens, 72 h)","IC50 (human PBMC B cells; Homo sapiens, 72 h)",IC50 (human PBMC T cells),IC50 (human PBMC B cells)
CCC(CC#N)OC(=O)NCc1cccc(NC(=O)Nc2ccc(-c3cnco3)c(OC)c2)c1 (centres unmarked) [Compound 27],< 0.01 µM,< 0.1 µM,< 0.1 µM,,
COc1cc(NC(=O)Nc2cccc(CNC(=O)O[C@@H](C)CC#N)c2)ccc1-c1cnco1 [Compound 28],< 0.01 µM,,,0.1 to 1 µM,0.1 to 1 µM
COc1cc(NC(=O)Nc2cccc(CNC(=O)O[C@H](C)CC#N)c2)ccc1-c1cnco1 [Compound 29],< 0.01 µM,,,< 0.1 µM,< 0.1 µM
COc1cc(NC(=O)Nc2cccc(CNC(=O)O[C@@H](C)CN(C)Cc3ccco3)c2)ccc1-c1cnco1 [Compound 30],< 0.01 µM,> 1 µM,0.1 to 1 µM,,
CCCC(CC#N)OC(=O)NCc1cccc(NC(=O)Nc2ccc(-c3cnco3)c(OC)c2)c1 (centres unmarked) [Compound 32],< 0.01 µM,0.1 to 1 µM,< 0.1 µM,,
CCCCC(CC#N)OC(=O)NCc1cccc(NC(=O)Nc2ccc(-c3cnco3)c(OC)c2)c1 (centres unmarked) [Compound 33],< 0.01 µM,0.1 to 1 µM,0.1 to 1 µM,,
CNCCC(OC(=O)NCc1cccc(NC(=O)Nc2ccc(-c3cnco3)c(OC)c2)c1)c1ccccc1 (centres unmarked) [Compound 34],< 0.01 µM,> 1 µM,0.1 to 1 µM,,
COc1cc(NC(=O)Nc2cccc(CNC(=O)OC(CCN(C)C)c3ccccc3)c2)ccc1-c1cnco1 (centres unmarked) [Compound 35],< 0.01 µM,0.1 to 1 µM,0.1 to 1 µM,,
COc1cc(NC(=O)Nc2cccc(CNC(=O)OC3CCC[C@H]3N3CCOCC3)c2)ccc1-c1cnco1 (some centres unmarked) [Compound 86],,> 1 µM,> 1 µM,,
COc1cc(NC(=O)Nc2cccc(CNC(=O)OC(CN3CCSCC3)c3ccccc3)c2)ccc1-c1cnco1 (centres unmarked) [Compound 105],,0.1 to 1 µM,0.1 to 1 µM,,
COc1cc(NC(=O)Nc2cccc(CNC(=O)OC(CN3CC[S+]([O-])CC3)c3ccccc3)c2)ccc1-c1cnco1 (centres unmarked) [Compound 106],,< 0.1 µM,< 0.1 µM,,
CCCN(CC)CC(OC(=O)NCc1cccc(NC(=O)Nc2ccc(-c3cnco3)c(OC)c2)c1)c1ccccc1 (centres unmarked) [Compound 111],,0.1 to 1 µM,0.1 to 1 µM,,
CCN(CC1CC1)CC(OC(=O)NCc1cccc(NC(=O)Nc2ccc(-c3cnco3)c(OC)c2)c1)c1ccccc1 (centres unmarked) [Compound 134],,0.1 to 1 µM,0.1 to 1 µM,,
CCC(COS(N)(=O)=O)OC(=O)NCc1cccc(NC(=O)Nc2ccc(-c3cnco3)c(OC)c2)c1 (centres unmarked) [Compound 138],,0.1 to 1 µM,0.1 to 1 µM,,
CCN(CC)CC(OC(=O)NCc1cccc(NC(=O)Nc2ccc(-c3cnco3)c(OC)c2)c1)C1CCCCC1 (centres unmarked) [Compound 157],,< 0.1 µM,< 0.1 µM,,
CCC(COC(N)=O)OC(=O)NCc1cccc(NC(=O)Nc2ccc(-c3cnco3)c(OC)c2)c1 (centres unmarked) [Compound 159],,0.1 to 1 µM,0.1 to 1 µM,,
CCC(CO)OC(=O)N[C@@H](C)c1cccc(NC(=O)Nc2ccc(-c3cnco3)c(OC)c2)c1 (some centres unmarked) [Compound 164],,0.1 to 1 µM,0.1 to 1 µM,,
CCC(CC#N)OC(=O)N[C@@H](C)c1cccc(NC(=O)Nc2ccc(C#N)c(OC)c2)c1 (some centres unmarked) [Compound 168],,0.1 to 1 µM,0.1 to 1 µM,,
CCC(CC#N)OC(=O)N[C@H](C)c1cccc(NC(=O)Nc2ccc(-c3cnco3)c(OC)c2)c1 (some centres unmarked) [Compound 171],,0.1 to 1 µM,< 0.1 µM,,
CCC(CC#N)OC(=O)N[C@H](C)c1cccc(NC(=O)Nc2ccc(C#N)c(OC)c2)c1 (some centres unmarked) [Compound 172],,> 1 µM,,,> 1 µM
CCC(CO)OC(=O)N[C@@H](C)c1cccc(NC(=O)Nc2ccc(C#N)c(OC)c2)c1 (some centres unmarked) [Compound 176],,> 1 µM,> 1 µM,,
CCC(CC#N)OC(=O)N[C@@H](C)c1cccc(NC(=O)Nc2ccc(C#N)c(Cl)c2)c1 (some centres unmarked) [Compound 183],,0.1 to 1 µM,0.1 to 1 µM,,
COc1cc(NC(=O)Nc2cccc([C@H](C)NC(=O)OC3CCOC3)c2)ccc1C#N (some centres unmarked) [Compound 184],,0.1 to 1 µM,0.1 to 1 µM,,
